Source: ChEMBL document CHEMBL5537205, “Discovery of D25, a Potent and Selective MNK Inhibitor for Sepsis-Associated Acute Spleen Injury” (J Med Chem, 2024)
The source made the active and inactive calls. No cut-off for these calls is given here.

Tests used:
[1] = tested on: MV4-11; test: Antiproliferative activity against human MV4-11 cells assessed as inhibition of cell proliferation at 20 uM incubated for 48 hrs by CCK8 assay relative to control; format: functional
[2] = tested on: RAW264.7; test: Antiinflammatory activity against mouse RAW264.7 cells assessed as inhibition of LPS-NO production by Griess reagent based assay; format: functional, cell-based
[3] = tested on: RAW264.7; test: Cytotoxicity against mouse RAW264.7 cells assessed as reduction in cell viability incubated for 24 hrs by MTT assay; format: toxicity, cell-based; details: raw264.7, 24 h
[4] = tested on: Mus musculus; test: Antiinflammatory activity in LPS-induced BALB/c sepsis mouse model assessed as increase in SOD level in serum at 2.5 mg/kg preadministered with compound via gavage for 14 days followed by LPS stimulation and measured after 6 hrs; format: functional, organism-based; details: time 342.0 hrs
[5] = tested on: RAW264.7; test: Antiinflammatory activity in LPS-induced mouse RAW264.7 cells assessed as reduction in ROS level at 10 uM pretreated with compound followed by LPS stimulation and measured after 1 hrs by flow cytometric analysis; format: functional, cell-based
[6] = tested on: Mus musculus; test: Antiinflammatory activity in LPS-induced BALB/c sepsis mouse model assessed as decrease in cell gap in spleen at 2.5 mg/kg preadministered with compound via gavage for 14 days followed by LPS stimulation and measured after 6 hrs by H&E staining based analysis; format: functional, organism-based; details: time 342.0 hrs
[7] = tested on: Mus musculus; test: Antiinflammatory activity in LPS-induced BALB/c sepsis mouse model assessed as decrease in inflammatory cells in spleen at 2.5 mg/kg preadministered with compound via gavage for 14 days followed by LPS stimulation and measured after 6 hrs by H&E staining based analysis; format: functional, organism-based; details: time 342.0 hrs
[8] = tested on: Mus musculus; test: Antiinflammatory activity in LPS-induced BALB/c sepsis mouse model assessed as decrease in infiltration of macrophages in spleen at 2.5 mg/kg preadministered with compound via gavage for 14 days followed by LPS stimulation and measured after 6 hrs by immunohistochemistry analysis; format: functional, organism-based; details: time 342.0 hrs
[9] = tested on: Mus musculus; test: Antiinflammatory activity in LPS-induced BALB/c sepsis mouse model assessed as decrease in serum IL-1beta level at 2.5 mg/kg preadministered with compound via gavage for 14 days followed by LPS stimulation and measured after 6 hrs by ELISA; format: functional, organism-based; details: time 342.0 hrs
[10] = tested on: Mus musculus; test: Antiinflammatory activity in LPS-induced BALB/c sepsis mouse model assessed as decrease in serum BUN level at 2.5 mg/kg preadministered with compound via gavage for 14 days followed by LPS stimulation and measured after 6 hrs; format: functional, organism-based; details: time 342.0 hrs
[11] = tested on: Mus musculus; test: Antiinflammatory activity in LPS-induced BALB/c sepsis mouse model assessed as increase in GSH level in serum at 2.5 mg/kg preadministered with compound via gavage for 14 days followed by LPS stimulation and measured after 6 hrs; format: functional, organism-based; details: time 342.0 hrs
[12] = tested on: Mus musculus; test: Antiinflammatory activity in LPS-induced BALB/c sepsis mouse model assessed as decrease in serum IL-6 level at 2.5 mg/kg preadministered with compound via gavage for 14 days followed by LPS stimulation and measured after 6 hrs by ELISA; format: functional, organism-based; details: time 342.0 hrs
[13] = tested on: Mus musculus; test: Antiinflammatory activity in LPS-induced BALB/c sepsis mouse model assessed as decrease in serum ALT level at 2.5 mg/kg preadministered with compound via gavage for 14 days followed by LPS stimulation and measured after 6 hrs; format: functional, organism-based; details: time 342.0 hrs
[14] = tested on: Mus musculus; test: Antiinflammatory activity in LPS-induced BALB/c sepsis mouse model assessed as decrease in MDA level in serum at 2.5 mg/kg preadministered with compound via gavage for 14 days followed by LPS stimulation and measured after 6 hrs; format: functional, organism-based; details: time 342.0 hrs
[15] = tested on: Mus musculus; test: Antiinflammatory activity in LPS-induced BALB/c sepsis mouse model assessed as decrease in serum creatinine level at 2.5 mg/kg preadministered with compound via gavage for 14 days followed by LPS stimulation and measured after 6 hrs; format: functional, organism-based; details: time 342.0 hrs
[16] = tested on: Mus musculus; test: Antiinflammatory activity in LPS-induced BALB/c sepsis mouse model assessed as decrease in serum TNF-alpha level at 2.5 mg/kg preadministered with compound via gavage for 14 days followed by LPS stimulation and measured after 6 hrs by ELISA; format: functional, organism-based; details: time 342.0 hrs
[17] = tested on: Mus musculus; test: Antiinflammatory activity in LPS-induced BALB/c sepsis mouse model assessed as decrease in serum AST level at 2.5 mg/kg preadministered with compound via gavage for 14 days followed by LPS stimulation and measured after 6 hrs; format: functional, organism-based; details: time 342.0 hrs
[18] = tested on: RAW264.7; test: Antiinflammatory activity against mouse RAW264.7 cells assessed as inhibition of LPS-NO production at 20 uM by Griess reagent based assay relative to control; format: functional

Row | SMILES | inhibition at 20 µM [1] | also measured
1 | Nc1ncc(-c2cc(C3CCNCC3)n[nH]2)cn1 | 37.9% | –
2 | Cc1cc(-c2cc(C3CCNCC3)n[nH]2)ccn1 | 0.1% | –
3 | Fc1cnccc1-c1cc(C2CCNCC2)n[nH]1 | 0.1% | Activity [2]: inactive; Activity [3]: Non-Toxic
4 | Cc1cc(F)ccc1-c1cc(C2CCNCC2)n[nH]1 | 31.2% | –
5 | Clc1cnccc1-c1cc(C2CCNCC2)n[nH]1 | 32.8% | –
6 | C[C@@H]1C[C@H]2[C@@H]3CCC4=CC(=O)C=C[C@]4(C)[C@@]3(F)[C@@H](O)C[C@]2(C)[C@@]1(O)C(=O)CO | – | Activity [4]: Active; Activity [5]: Active; Activity [6]: Active; Activity [7]: Active; Activity [8]: Active; Activity [9]: Active; Activity [10]: Active; Activity [11]: Active; Activity [12]: Active; Activity [13]: Active; Activity [14]: Active; Activity [15]: Active; Activity [16]: Active; Activity [17]: Active
7 | CN1CCN(c2ccc(-c3cc(C4CCNCC4)n[nH]3)cc2)CC1 | 8.5% | inhibition at 20 µM [18]: > 50%
8 | O=[N+]([O-])c1ccc(-c2cc(C3CCNCC3)n[nH]2)cc1 | 4.6% | –
9 | Fc1cccc(-c2cc(C3CCNCC3)n[nH]2)c1 | 0.1% | –
10 | c1ccc(-c2cc(C3CCNCC3)n[nH]2)cc1 | 0.3% | –
11 | CCNc1cc(-c2cc(C3CCNCC3)n[nH]2)ccn1 | 15.4% | –
12 | Fc1cc(-c2cc(C3CCNCC3)n[nH]2)cc(F)c1F | 3.4% | –
13 | Fc1ccc(-c2cc(C3CCNCC3)n[nH]2)cc1 | 0.1% | –
14 | CN1CCC(c2cc(-c3ccncc3)[nH]n2)CC1 | 3.39% | –
15 | c1cnc(-c2cc(C3CCNCC3)n[nH]2)cn1 | 0.1% | –
16 | Clc1cc(-c2cc(C3CCNCC3)n[nH]2)ccn1 | 35.6% | –
17 | N#Cc1ccc(-c2cc(C3CCNCC3)n[nH]2)cc1 | 6% | inhibition at 20 µM [18]: > 50%
18 | c1cc(-c2cc(C3CCNCC3)n[nH]2)ncn1 | 0.2% | –
19 | Nc1ncccc1-c1cc(C2CCNCC2)n[nH]1 | 15.2% | –
20 | FC(F)(F)c1ccc(-c2cc(C3CCNCC3)n[nH]2)cc1 | 36% | –
21 | Cn1ccc2c(-c3cc(C4CCNCC4)n[nH]3)ccnc21 | 23.8% | –

Row | SMILES | inhibition at 20 µM [1] | also measured
22 | Nc1ccc(-c2cc(C3CCNCC3)n[nH]2)cn1 | 35% | –
23 | Fc1cc(-c2cc(C3CCNCC3)n[nH]2)ccn1 | 0.1% | –
24 | CN(C)c1cc(-c2cc(C3CCNCC3)n[nH]2)ccn1 | 56.9% | –
25 | Clc1cc(-c2cc(C3CCNCC3)n[nH]2)cc(Cl)n1 | 22.1% | –
26 | c1ncc(-c2cc(C3CCNCC3)n[nH]2)cn1 | 0.1% | –
27 | c1ncc(-c2cc(C3CCNCC3)n[nH]2)s1 | 11.1% | –
28 | Nc1cc(-c2cc(C3CCNCC3)n[nH]2)ccn1 | 33.3% | Activity [2]: inactive; Activity [3]: Non-Toxic
29 | c1cncc(-c2cc(C3CCNCC3)n[nH]2)c1 | 0.2% | –
30 | Brc1cnccc1-c1cc(C2CCNCC2)n[nH]1 | 6.1% | –
31 | Fc1ccc(-c2cc(C3CCNCC3)n[nH]2)c(F)c1 | 9.8% | –
32 | Fc1ccc(-c2cc(C3CCNCC3)n[nH]2)cc1F | 6.4% | –
33 | Cc1cc(-c2cc(C3CCNCC3)n[nH]2)cc(C)n1 | 0.2% | –
34 | Fc1cc(F)cc(-c2cc(C3CCNCC3)n[nH]2)c1 | 2.1% | –
35 | c1cc(-c2cc(C3CCNCC3)n[nH]2)ccn1 | 51.2% | Activity [2]: inactive
36 | COc1cc(-c2cc(C3CCNCC3)n[nH]2)ccn1 | 19.3% | –
37 | Clc1cncc(Cl)c1-c1cc(C2CCNCC2)n[nH]1 | 19.6% | –
38 | c1cc(-c2cc(C3CCNCC3)[nH]n2)ccn1 | – | Activity [3]: Non-Toxic
39 | Brc1cc(-c2cc(C3CCNCC3)n[nH]2)ccn1 | 20.7% | –
40 | c1cc(-c2cc(C3CCNCC3)n[nH]2)cs1 | 0.1% | –
41 | CNc1cc(-c2cc(C3CCNCC3)n[nH]2)ccn1 | 30.2% | –
42 | FC(F)(F)c1cc(-c2cc(C3CCNCC3)n[nH]2)ccn1 | 52.5% | –
